Assay results reported in BindingDB's records for doi:10.1021/acs.jmedchem.3c00203 (University of Oxford, 2023).

Assays:
[1] = molecular target: T1, Isocitrate dehydrogenase [NADP] cytoplasmic (Homo sapiens, UniProt O75874); assay: Inhibition of recombinant wildtype IDH1 (unknown origin) expressed in Escherichia coli BL21(DE3) pLysS cells using DL-isocitrste as substrate assessed as DL-isocitrate conversion to 2OG incubated for 60 mins in presence of NADPH by spectrophotometric analysis
Target sequence in this assay (O75874 whole entry): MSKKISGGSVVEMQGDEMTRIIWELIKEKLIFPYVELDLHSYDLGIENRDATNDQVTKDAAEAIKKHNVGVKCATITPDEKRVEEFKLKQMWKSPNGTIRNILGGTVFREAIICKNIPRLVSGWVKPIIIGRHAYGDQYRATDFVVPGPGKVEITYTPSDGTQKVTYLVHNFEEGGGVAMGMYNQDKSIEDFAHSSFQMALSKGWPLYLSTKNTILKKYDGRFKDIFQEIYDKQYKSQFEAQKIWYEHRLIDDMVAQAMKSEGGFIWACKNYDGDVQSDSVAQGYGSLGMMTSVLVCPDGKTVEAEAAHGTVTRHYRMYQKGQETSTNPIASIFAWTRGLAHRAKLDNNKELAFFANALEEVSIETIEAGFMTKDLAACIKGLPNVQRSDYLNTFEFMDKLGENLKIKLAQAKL

[2] = molecular target: T1, Isocitrate dehydrogenase [NADP] cytoplasmic; assay: Inhibition of recombinant IDH1 R132H mutant (unknown origin) expressed in Escherichia coli BL21(DE3) pLysS cells using 2OG as substrate assessed as 2OG conversion to 2HG incubated for 60 mins in presence of NADPH by spectrophotometric analysis
Target sequence in this assay (O75874 2-414 R132H limits assumed): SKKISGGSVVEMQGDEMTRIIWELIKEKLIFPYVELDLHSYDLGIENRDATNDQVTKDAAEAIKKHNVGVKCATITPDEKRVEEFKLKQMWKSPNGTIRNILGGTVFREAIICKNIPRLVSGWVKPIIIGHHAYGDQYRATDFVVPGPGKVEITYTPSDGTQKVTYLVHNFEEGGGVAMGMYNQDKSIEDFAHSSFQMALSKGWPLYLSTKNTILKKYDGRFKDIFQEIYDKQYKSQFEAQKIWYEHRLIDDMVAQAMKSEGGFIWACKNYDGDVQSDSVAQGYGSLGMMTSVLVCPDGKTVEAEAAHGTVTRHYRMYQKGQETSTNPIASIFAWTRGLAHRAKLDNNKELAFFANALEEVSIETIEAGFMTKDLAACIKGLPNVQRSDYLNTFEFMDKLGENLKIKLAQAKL

[3] = molecular target: T1, Isocitrate dehydrogenase [NADP] cytoplasmic; assay: Binding affinity to recombinant wildtype IDH1 (unknown origin) expressed in Escherichia coli BL21(DE3) pLysS cells assessed as dissociation constant by ITC assay
Target sequence in this assay (O75874 whole entry): as the sequence (O75874 whole entry) above

[4] = molecular target: T1, Isocitrate dehydrogenase [NADP] cytoplasmic; assay: Binding affinity to recombinant IDH1 R132H mutant (unknown origin) expressed in Escherichia coli BL21(DE3) pLysS cells assessed as dissociation constant by ITC assay
Target sequence in this assay (O75874 2-414 R132H limits assumed): as the sequence (O75874 2-414 R132H limits assumed) above

[5] = molecular target: T1, Isocitrate dehydrogenase [NADP] cytoplasmic; assay: Binding affinity to recombinant wildtype IDH1 (unknown origin) expressed in Escherichia coli BL21(DE3) pLysS cells assessed as dissociation constant by NMR analysis
Target sequence in this assay (O75874 whole entry): as the sequence (O75874 whole entry) above

[6] = molecular target: T1, Isocitrate dehydrogenase [NADP] cytoplasmic; assay: Binding affinity to recombinant IDH1 R132H mutant (unknown origin) expressed in Escherichia coli BL21(DE3) pLysS cells assessed as dissociation constant by NMR analysis
Target sequence in this assay (O75874 2-414 R132H limits assumed): as the sequence (O75874 2-414 R132H limits assumed) above

[7] = molecular target: T1, Isocitrate dehydrogenase [NADP] cytoplasmic; assay: Binding affinity to human recombinant IDH1 expressed in Escherichia coli BL21(DE3) pLysS cells assessed as dissociation constant by non-denaturing mass spectroscopic analysis
Target sequence in this assay (O75874 whole entry): as the sequence (O75874 whole entry) above

[8] = molecular target: T1, Isocitrate dehydrogenase [NADP] cytoplasmic; assay: Binding affinity to human recombinant IDH1 R132H mutant expressed in Escherichia coli BL21(DE3) pLysS cells assessed as dissociation constant by non-denaturing mass spectroscopic analysis
Target sequence in this assay (O75874 2-414 R132H limits assumed): as the sequence (O75874 2-414 R132H limits assumed) above

An IC50 [1] of 341 nM, an IC50 [2] of 8.2 nM and a Kd [3] of over 400000 nM were found for `CC(=O)N1CCN(Cc2ccc([C@H](C)Nc3nccc(N4C(=O)OC[C@@H]4C(C)C)n3)cc2)CC1` [US8957068, 556] in this work. It also gave a Kd [4] of over 400000 nM, a Kd [5] of 1700 nM and a Kd [6] of 1100 nM. The Kd [7] was 140000 nM and the Kd [8] was 142000 nM.
